According to ChEMBL document CHEMBL1128412, “Mechanism-based development of new antimalarials: synthesis of derivatives of artemisinin attached to iron chelators” (J Med Chem, 1995):

Experiments:
[1] = system: Plasmodium falciparum; test: In vitro antimalarial activity against Plasmodium falciparum in 20 mM FeCl3; format: functional, organism-based
[2] = system: Plasmodium falciparum; test: In vitro antimalarial activity against Plasmodium falciparum; format: functional, organism-based

SMILES | IC50 [1] | IC50 [2]
C[C@H]1[C@@H](OCCCONC(=O)c2ccccc2)O[C@@H]2O[C@@]3(C)CC[C@H]4[C@H](C)CC[C@@H]1[C@@]24OO3 | 32.9 nM | 0.0236 µM
C[C@H]1[C@@H](O)O[C@@H]2O[C@@]3(C)CC[C@H]4[C@H](C)CC[C@@H]1[C@@]24OO3 [ARTENIMOL] | – | 0.0011 µM
C[C@H]1[C@@H](OCCC2Oc3cccc(O)c3O2)O[C@@H]2O[C@@]3(C)CC[C@H]4[C@H](C)CC[C@@H]1[C@@]24OO3 (some centres undefined) | – | 0.00664 µM
Oc1cccc(O)c1O [PYROGALLOL] | – | 5.66 µM
COC(=O)/C=C/c1ccc(O)c(O)c1 [METHYLCAFFEATE] | – | 46.5 µM
C[C@H]1[C@@H](OCCCONC(=O)c2ccccc2O)O[C@@H]2O[C@@]3(C)CC[C@H]4[C@H](C)CC[C@@H]1[C@@]24OO3 | 48.7 nM | 0.0525 µM
C[C@H]1[C@@H](OCCCBr)O[C@@H]2O[C@@]3(C)CC[C@H]4[C@H](C)CC[C@@H]1[C@@]24OO3 | – | 0.00368 µM
CCN(CC)C(=S)SCCCO[C@H]1O[C@@H]2O[C@@]3(C)CC[C@H]4[C@H](C)CC[C@@H]([C@H]1C)[C@@]24OO3 | – | 0.00765 µM
C[C@H]1[C@@H](OCCC2ON2C(=O)c2ccccc2O)O[C@@H]2O[C@@]3(C)CC[C@H]4[C@H](C)CC[C@@H]1[C@@]24OO3 (some centres undefined) | – | 0.00425 µM
C[C@H]1[C@@H](OCCCOc2cccc(O)c2O)O[C@@H]2O[C@@]3(C)CC[C@H]4[C@H](C)CC[C@@H]1[C@@]24OO3 | – | 0.0127 µM
O=C(NO)c1ccccc1 [BENZOHYDROXAMATE] | – | 17.6 µM
O=c1cc(CO)occ1O [KOJIC ACID] | – | 1580 µM
C[C@H]1[C@@H](OCCCOc2coc(CO)cc2=O)O[C@@H]2O[C@@]3(C)CC[C@H]4[C@H](C)CC[C@@H]1[C@@]24OO3 | 16.8 nM | 0.00955 µM
COC(=O)/C=C/c1ccc(OCCCO[C@H]2O[C@@H]3O[C@@]4(C)CC[C@H]5[C@H](C)CC[C@@H]([C@H]2C)[C@@]35OO4)c(O)c1 | 3.38 nM | 0.00478 µM
C[C@H]1[C@@H](OCCCOc2c(O)cccc2O)O[C@@H]2O[C@@]3(C)CC[C@H]4[C@H](C)CC[C@@H]1[C@@]24OO3 | 9.21 nM | 0.00767 µM
C[C@@H]1CC[C@H]2[C@@H](C)C(=O)O[C@@H]3O[C@@]4(C)CC[C@@H]1[C@]32OO4 [ARTEMISININ] | 5.41 nM | 0.00582 µM
O=C(O)/C=C/c1ccc(O)c(O)c1 [CAFFEIC ACID] | – | 122 µM
O=C(NO)c1ccccc1O [SALICYLHYDROXAMIC ACID] | – | 107 µM
